Here are results for one substance from article PMC5667506, “Potent and selective inhibition of SH3 domains with dirhodium metalloinhibitors” (Chemical Science, 2015).

This assay concerns the target T1, Src SH3 domain (Homo sapiens, UniProt P12931).
T1 construct: fyn, yes, lck, and src SH3 protein domains were prepared following published procedures; made in house
Nature of the assay: ITC binding to Src SH3 domain. As for the experimental part: All chemical reagents were purchased from Sigma-Aldrich and were used without further purification.
Peptide synthesis. All peptides were synthesized manually or with an AAPPTEC APEX 396 Automated Multipeptide Synthesizer using standard solid-phase Fmoc protocols.1,2 Peptides were prepared as C-terminal amides using Rink amide MBHA resin (AAPPTEC) and were acetylated at the N-terminus prior to cleavage from the resin. Peptides and metallopeptides were purified by reverse-phase HPLC.
HPLC separation. Reverse-phase HPLC was performed on a Shimadzu CBM-20A instrument with Phenomenex Jupiter 4μ Proteo 90A (250 × 15 mm preparative) and Phenomenex Jupiter 4μ Proteo 90A (250 × 4.6 mm analytical) columns. The columns were eluted with a gradient of acetonitrile in water (10-90%) (flow rates of 8 mL/min and 1 mL/min for preparative and analytical columns, respectively). Trifluoroacetic acid (0.1%) was added to all eluents.
FPLC separation. Analytical FPLC was performed on an ÄKTA instrument with Superdex Peptide PE 7.5/300 column. The column was equilibrated with buffer (150 mM NaCl, 50 mM Tris, pH 7.0) at flow rate of 0.2 mL/min.
ITC analysis. ITC experiments were carried out on a VP-ITC instrument (MicroCal) at 25 °C. Titrations of 275 μM peptide into 18 μM SH3 domain proteins were used for all titrations, except for the titration of S2ERh into Lyn SH3 domain, where the lower concentrations of 69 µM S2ERh peptide and 4 µM Lyn SH3 were used to attain a c-value for the titration within the accepted limts for ITC experiments ([…]).3
Heats of dilutions were measured independently for each experiment by titrating 275 μM peptide into buffer (20 mM phosphate buffer, pH 7, 150 mM NaCl, 1 mM EDTA). All experimental data were fitted using a one set of sites binding model in Origin software (MicroCal) except for the data with Hck SH3 domain. With Hck only, the non-peptide specific binding of dirhodium tetraacetate to Hck SH3 domain could not be treated as negligible, despite the very weak interaction (88 µM), due to the larger enthalpy contribution observed for non-specific binding to this SH3 domain, so the titrations of peptide into Hck were fitted using a 2 set of sites binding model where the stoichiometry for the second set of sites was fixed at 2.0. […]
Mass spectrometry. ESI-MS was performed on a Bruker Daltonics micrOTOF instrument.
Known compounds and proteins. Several metallopeptides (S2ERh, L3ERh, R5ERh, and 13DRh) were reported previously and were prepared by known protocols;4 alkyne-diazo 3,5 3-azido-7-hydroxycoumarin6 were synthesized following reported procedures; fyn, yes, lck, and src SH3 protein domains were prepared following published procedures.5 Abl, hck, and lyn SH3 domain plasmids were adapted from the previously reported genes;7 the gene templates were obtained from Addgene, ID

With AcVELARRPLPPLPN-NH2 [S2E^Rh], the Stoichiometry is 1.1. For the same substance, under “25 °C”, the “-TΔS” value came to 7.2 kcal/mol; the Kd (in general, the constant that tells how readily two partners part at equilibrium) amounted to 327 nM; the ΔG was -8.8 kcal/mol; the ΔH is -16.0 kcal/mol.
